Measured values reported in the supplement of paper PMC10307832.

What was measured:
Experiment in all cases: relative viability (nuclei count vs DMSO), 5 days (fraction); higher = more cells survive
Motesanib + Lapatinib = compound: CC1(C)CNc2cc(NC(=O)c3cccnc3NCc3ccncc3)ccc21 [Motesanib] + CS(=O)(=O)CCNCc1ccc(-c2ccc3ncnc(Nc4ccc(OCc5cccc(F)c5)c(Cl)c4)c3c2)o1 [Lapatinib] (partner 2 µM)
How it was run: (§1)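 Lung cancer cell lines in 1536-well plates got either a single drug or a fixed anchor-drug dose together with five library-drug doses (not always all listed) in √10 steps, by pin tool, on the day after seeding. Nuclei were counted after 5 days, and relative viability is the treated-to-vehicle ratio of nuclei counts. Values are medians of duplicate plates.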

Motesanib + Olaparib = compound: CC1(C)CNc2cc(NC(=O)c3cccnc3NCc3ccncc3)ccc21 [Motesanib] + O=C(c1cc(Cc2n[nH]c(=O)c3ccccc23)ccc1F)N1CCN(C(=O)C2CC2)CC1 [Olaparib] (partner 8 µM)
How it was run: as §1

[1] = compound: C[C@@]1(C(=O)Nc2ccc(F)nc2)CCCN1c1nc(Nc2cc(C3CC3)n[nH]2)c2cccn2n1 + Cc1cc(Nc2cc(N3CCN(C)CC3)nc(Sc3ccc(NC(=O)C4CC4)cc3)n2)n[nH]1 [Tozasertib] (partner 0.1 µM)
How it was run: as §1

[2] = compound: C[C@@]1(C(=O)Nc2ccc(F)nc2)CCCN1c1nc(Nc2cc(C3CC3)n[nH]2)c2cccn2n1 + Nc1ncn([C@H]2C[C@H](O)[C@@H](CO)O2)c(=O)n1 [Decitabine] (partner 2 µM)
How it was run: as §1

Cell Line | relative viability (Motesanib + Lapatinib; first compound 0.01 µM) | relative viability (Motesanib + Lapatinib; first compound 0.03162 µM) | relative viability (Motesanib + Lapatinib; first compound 0.1 µM) | relative viability (Motesanib + Lapatinib; first compound 0.3162 µM) | relative viability (Motesanib + Lapatinib; first compound 1 µM) | relative viability (Motesanib + Olaparib; first compound 0.01 µM) | relative viability (Motesanib + Olaparib; first compound 0.03162 µM) | relative viability (Motesanib + Olaparib; first compound 0.1 µM) | relative viability (Motesanib + Olaparib; first compound 0.3162 µM) | relative viability (Motesanib + Olaparib; first compound 1 µM) | relative viability ([1]; first compound 0.04 µM) | relative viability ([1]; first compound 0.1265 µM) | relative viability ([1]; first compound 0.4 µM) | relative viability ([1]; first compound 1.265 µM) | relative viability ([2]; first compound 0.04 µM) | relative viability ([2]; first compound 0.1265 µM) | relative viability ([2]; first compound 0.4 µM) | relative viability ([2]; first compound 1.265 µM)
201T | 1.01 | 1.04 | 1.08 | 1.04 | 0.903 | 0.803 | 0.828 | 0.852 | 0.88 | 0.872 | 0.827 | 0.709 | 0.431 | 0.863 | 0.813 | 0.714 | 0.671 | 0.862
A549 | 0.965 | 0.975 | 0.989 | 1.09 | 0.955 | 0.333 | 0.402 | 0.407 | 0.438 | 0.402 |  |  |  |  | 0.284 | 0.248 | 0.326 | 0.199
A-427 | 0.668 | 1.02 | 0.896 | 1.1 | 1.02 | 0.78 | 0.7 | 0.672 | 0.732 | 0.777 | 0.234 | 0.192 | 0.173 | 0.198 | 0.514 | 0.413 | 0.489 | 0.501
ABC-1 | 1.12 | 0.945 | 1.01 | 1.27 | 1.17 | 0.895 | 0.66 | 0.58 | 1.15 | 0.869 | 0.2 | 0.128 | 0.184 | 0.165 | 1.01 | 0.714 | 0.628 | 0.785
BEN | 0.591 | 0.715 | 0.723 | 0.714 | 0.789 | 1.02 | 1.04 | 0.938 | 1.18 | 1.43 | 0.551 | 0.529 | 0.517 | 0.501 | 0.702 | 0.583 | 0.737 | 0.562
CAL-12T |  |  | 0.67 | 0.649 | 0.65 | 0.674 | 0.731 | 0.699 | 0.683 | 0.736 | 0.249 | 0.27 | 0.275 | 0.189 |  |  |  | 
COR-L23 | 0.931 | 0.929 | 1.01 | 0.996 | 1.08 | 0.366 | 0.389 | 0.275 | 0.363 | 0.36 | 0.195 | 0.23 | 0.131 | 0.107 | 0.413 | 0.412 | 0.315 | 0.267
COR-L 105 | 0.368 | 0.408 | 0.327 | 0.355 | 0.347 | 0.767 | 0.761 | 0.745 | 0.725 | 0.804 | 0.373 | 0.332 | 0.426 | 0.3 | 0.697 | 0.547 | 0.541 | 0.588
Calu-6 | 1.06 | 1.05 | 1.02 | 0.997 | 0.999 | 0.56 | 0.603 | 0.456 | 0.546 | 0.536 |  |  |  |  |  |  |  | 
ChaGo-K-1 |  |  |  |  |  | 0.434 | 0.437 | 0.425 | 0.484 | 0.411 | 0.209 | 0.197 | 0.201 | 0.207 | 0.511 | 0.52 | 0.499 | 0.503
EBC-1 | 0.268 | 0.206 | 0.223 | 0.211 | 0.223 | 0.732 | 0.674 | 0.694 | 0.729 | 0.783 |  |  |  |  |  |  |  | 
EKVX | 0.201 | 0.21 | 0.225 | 0.204 | 0.246 | 0.74 | 0.809 | 0.776 | 0.904 | 0.944 | 0.363 | 0.349 | 0.259 | 0.28 | 0.29 | 0.246 | 0.357 | 0.288
EMC-BAC-2 | 0.884 | 0.881 | 0.847 | 0.926 | 0.875 | 0.482 | 0.516 | 0.494 | 0.471 | 0.474 | 0.25 | 0.277 | 0.215 | 0.201 | 0.709 | 0.737 | 0.578 | 0.717
EPLC-272H | 1 | 0.943 | 0.847 | 0.925 | 0.898 | 0.779 | 1.33 | 0.759 | 0.689 | 0.745 | 0.182 |  | 0.178 | 0.287 | 0.348 | 0.306 | 0.279 | 0.336
H3255 | 0.228 | 0.276 | 0.224 | 0.268 | 0.254 | 0.564 | 0.601 | 0.576 | 0.585 | 0.643 | 0.695 | 0.781 | 0.656 | 0.582 | 0.587 | 0.622 | 0.521 | 0.65
HARA | 0.698 | 0.668 | 0.77 | 0.742 | 0.804 | 0.761 | 0.937 | 1.06 | 0.902 | 1.05 | 0.367 | 0.103 | 0.0758 | 0.79 | 0.445 | 0.436 | 0.418 | 0.513
HCC-15 | 0.849 | 0.874 | 0.723 | 0.947 | 0.886 | 0.632 | 0.74 | 0.739 | 0.702 | 0.724 | 0.403 | 0.337 | 0.119 | 0.169 | 0.48 | 0.375 | 0.43 | 0.311
HCC-44 | 0.989 | 0.952 | 1.02 | 1.04 | 1.03 | 0.944 | 0.926 | 1.07 | 1.09 | 0.95 | 0.858 | 0.616 | 0.574 | 0.362 | 0.957 | 0.949 | 0.811 | 0.84
HCC-78 | 0.662 | 0.785 | 0.63 | 0.913 | 0.916 | 0.938 | 0.789 | 0.655 |  | 0.834 | 0.37 | 0.27 | 0.308 | 0.33 | 0.624 | 0.564 | 0.587 | 0.394
